The values that follow come from ChEMBL document CHEMBL1135902, “Molecular interaction of the antagonist N-(piperidin-1-yl)-5-(4-chlorophenyl)-1- (2,4-dichlorophenyl)-4-methyl-1H-pyrazole-3-carboxamide with the CB1 cannabinoid receptor” (J Med Chem, 2002).

Usually Ki stands for a dissociation constant, usually derived from enzyme kinetics or from competition with a known ligand.

Chain of Cannabinoid receptor 1 (P20272 whole entry): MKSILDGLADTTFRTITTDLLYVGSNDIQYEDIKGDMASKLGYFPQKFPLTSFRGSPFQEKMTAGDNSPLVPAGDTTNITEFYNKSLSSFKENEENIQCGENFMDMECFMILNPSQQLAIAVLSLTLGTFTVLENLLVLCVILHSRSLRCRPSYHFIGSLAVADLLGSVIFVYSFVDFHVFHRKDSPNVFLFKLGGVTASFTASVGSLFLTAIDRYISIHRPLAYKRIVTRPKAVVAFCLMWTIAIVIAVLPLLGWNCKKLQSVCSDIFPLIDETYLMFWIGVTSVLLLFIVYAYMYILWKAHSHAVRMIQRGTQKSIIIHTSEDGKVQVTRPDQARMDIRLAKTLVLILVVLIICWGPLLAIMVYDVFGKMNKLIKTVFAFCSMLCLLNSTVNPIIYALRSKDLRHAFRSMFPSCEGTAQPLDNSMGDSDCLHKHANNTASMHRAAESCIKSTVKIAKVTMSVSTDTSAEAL

The assay concerns the target Cannabinoid receptor 1 (Rattus norvegicus, UniProt P20272). The assay is classed as cell membranes, Brain, Brain membranes.
Description: Inhibition of [3H]CP-55940 binding to cannabinoid receptor 1 in rat brain membranes.
`Cc1c(COCCN2CCCCC2)nn(-c2ccc(Cl)cc2Cl)c1-c1ccc(Cl)cc1` displayed a Ki of 232 nM.

On to `CCCCn1nc(C(=O)NN2CCCCC2)c(C)c1-c1ccccc1`, for which the Ki came to 187 nM.

Regarding `CCCCCNC(=O)c1nn(-c2ccc(Cl)cc2Cl)c(-c2ccc(Cl)cc2)c1C`, the Ki is 3 nM.

In the case of `CCCCc1ccc(-n2nc(C(=O)NN3CCCCC3)c(C)c2-c2ccc(Cl)cc2)cc1`, the Ki came out at 256 nM.

The compound `CCCCCn1nc(C(=O)NN2CCCCC2)c(C)c1-c1ccc(Br)cc1` yielded a Ki of 63 nM.

For `Cc1c(C(=O)N(C)C2CCCCC2)nn(-c2ccc(Cl)cc2Cl)c1-c1ccc(Br)cc1`, affinity was put at a Ki of 56 nM. This Ki and that of the compound before are within 1.5-fold of each other.

For `Cc1c(C(=O)NCCO)nn(-c2ccc(Cl)cc2Cl)c1-c1ccc(Br)cc1`, the Ki is 165 nM.

Compound `Cc1c(C(=O)NN2CCCCC2)nn(-c2ccc(N)cc2)c1-c1ccc(Cl)cc1` registered a Ki of 72 nM.

Take `CCCCCn1nc(C(=O)NN2CCCCC2)c(C)c1-c1ccccc1`: the Ki was determined as 23 nM.

In the case of `Cc1c(C(=O)NN2CCCC2)nn(-c2ccc(Cl)cc2Cl)c1-c1ccc(Br)cc1`, the Ki was found to be 17.1 nM. This Ki and that of the compound before are within 1.5-fold of each other.

In the case of `Cc1c(COCc2ccc(F)cc2)nn(-c2ccc(Cl)cc2Cl)c1-c1ccc(Cl)cc1`, the Ki is 6 nM.

Turning to `CC(=O)c1ccc(-c2c(C#N)c(C(=O)Nc3ccccc3)nn2-c2ccccc2Cl)cc1`, affinity was put at a Ki of 7 nM.

Compound `CCCCCCCn1nc(C(=O)NN2CCCCC2)c(C)c1-c1ccccc1` displayed a Ki of 47 nM.

`CCCCCC(=O)c1nn(-c2ccc(Cl)cc2Cl)c(-c2ccc(Cl)cc2)c1C` showed a Ki of 25 nM.

For `CCCCCc1ccc(-c2c(C)c(C(=O)NN3CCCCC3)nn2-c2ccc(Cl)cc2Cl)cc1`, the Ki worked out at 1 nM.

Regarding `CCC(C)c1ccc(-n2nc(C(=O)NN3CCCCC3)c(C)c2-c2ccc(Cl)cc2)cc1` (configuration not stated), affinity was put at a Ki of 37 nM.

The compound `Cc1c(C(=O)NN2CCOCC2)nn(-c2ccc(Cl)cc2Cl)c1-c1ccc(Br)cc1` displayed a Ki of 19 nM.

With `Cc1c(C(=O)NC2CCCCC2)nn(-c2ccc(Cl)cc2Cl)c1-c1ccc(Br)cc1`, the affinity, expressed as Ki, was 15 nM.

Compound `Cc1c(C(=O)NN2CCCCC2)nn(-c2ccc([N+](=O)[O-])cc2)c1-c1ccc(Cl)cc1` gave a Ki of 109 nM.

`Cc1c(COCC2CCCCC2)nn(-c2ccc(Cl)cc2Cl)c1-c1ccc(Cl)cc1` displayed a Ki of 100 nM.

On to `CCCCCCn1nc(C(=O)NN2CCCCC2)c(C)c1-c1ccccc1`, for which the affinity corresponds to a Ki of 21 nM.

In turn, `O=C(NN1CCCCC1)c1nn(-c2ccc(Cl)cc2Cl)c2c([N+](=O)[O-])cccc12` showed a Ki of 202 nM.

As to `Cc1c(C(=O)NN2CCCCC2)nn(-c2ccc(Cl)cc2)c1-c1ccc(Cl)cc1`, the Ki came to 55 nM.

`CCCCCc1ccc(-n2nc(C(=O)NN3CCCCC3)c(C)c2-c2ccc(Cl)cc2)cc1` had an inhibition constant (Ki) of 1360 nM. Compared with the last compound, the Ki is about 25-fold higher.

For the compound `O=C(NN1CCCCC1)c1nn(-c2ccc(Cl)cc2Cl)c2c(Cl)cccc12`, the Ki came to 746 nM. Compared with the last compound, the Ki is about 1.8-fold lower.

As for `CCCCCCCNC(=O)c1nn(-c2ccc(Cl)cc2Cl)c(-c2ccc(Cl)cc2)c1C`, the Ki came to 3 nM.

Turning to `Cc1c(C(=O)NN2CCCCC2)nn(C2CCCCC2)c1-c1ccccc1`, the affinity corresponds to a Ki of 391 nM.
